Laboratory results as given in patent publication US11220491B2, “Photoprotective compositions containing Malassezia-derived compounds and/or chemical analogs thereof” (Versicolor Technologies, LLC, priority 2018, dated 2022).
Where “and” joins values, the source holds several entries; their conditions need not be identical. Identical values can stand only once. Like-named read-outs stand apart in the source and are kept apart here.

What was measured:
[1] = molecular target: T1, arylhydrocarbon receptor (AhR) (Homo sapiens, UniProt P35869); set-up: HepG2 cells stably transfected with an AhR-responsive luciferase reporter gene plasmid; host or cells: HepG2-AhR-Luc (HepG2 stably transfected with an AhR-responsive luciferase reporter plasmid); conditions: cited from earlier work
T1 sequence (P35869 11-848): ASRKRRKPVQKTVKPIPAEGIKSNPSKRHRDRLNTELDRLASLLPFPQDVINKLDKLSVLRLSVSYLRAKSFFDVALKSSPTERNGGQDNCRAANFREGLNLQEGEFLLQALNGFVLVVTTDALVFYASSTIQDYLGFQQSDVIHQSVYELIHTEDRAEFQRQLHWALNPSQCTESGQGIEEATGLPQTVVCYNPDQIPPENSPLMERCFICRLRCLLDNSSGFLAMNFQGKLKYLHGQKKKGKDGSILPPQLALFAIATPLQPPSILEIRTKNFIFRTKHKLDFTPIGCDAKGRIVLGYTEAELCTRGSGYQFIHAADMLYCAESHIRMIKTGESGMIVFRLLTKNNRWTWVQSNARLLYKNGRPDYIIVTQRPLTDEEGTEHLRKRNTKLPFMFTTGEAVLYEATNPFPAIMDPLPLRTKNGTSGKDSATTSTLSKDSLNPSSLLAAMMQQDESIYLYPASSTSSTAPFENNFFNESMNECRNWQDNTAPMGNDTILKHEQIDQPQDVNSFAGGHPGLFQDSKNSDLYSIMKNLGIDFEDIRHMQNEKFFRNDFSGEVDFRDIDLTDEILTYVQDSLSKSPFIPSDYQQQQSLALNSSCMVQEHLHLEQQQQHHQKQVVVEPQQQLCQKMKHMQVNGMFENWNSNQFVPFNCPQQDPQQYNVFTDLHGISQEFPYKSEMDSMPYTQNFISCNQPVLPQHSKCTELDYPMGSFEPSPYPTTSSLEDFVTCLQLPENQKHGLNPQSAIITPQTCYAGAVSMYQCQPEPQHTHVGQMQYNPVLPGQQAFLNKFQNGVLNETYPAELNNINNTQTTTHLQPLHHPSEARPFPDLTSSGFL

[2] = molecular target: T1, arylhydrocarbon receptor (AhR); test: HepG2-AhR-Luciferase assay
Description: HepG2-AhR-Luc cells were purchased from Pharmaron, One-Glo Luciferase assay system was purchased from Promega. DMEM was purchased from Hyclone, and penicillin/streptomycin was purchased from Solabio.
Culture media for stably transfected HepG2 cells was prepared by supplementing DMEM with high glucose and L-glutamine, as well as 10% FBS.
HepG2-AhR-Luc cells were cultured in T-75 flasks at 37° C., 5% CO2, and 95% relative humidity. Cells were allowed to reach 80-90% confluence before detachment and splitting.
Cultivated cells were rinsed with 5 mL PBS. PBS was aspirated away, 1.5 mL trypsin was added to the flask, and cells were incubated at 37° C. for approximately 5 minutes or until the cells detached and floated. Trypsin was inactivated by adding excess serum-containing media.
The cell suspension was transferred to a conical tube and centrifuged at 120 g for 10 minutes to pellet the cells. Cells were resuspended in seeding media at a proper density. 40 μL of cells were transferred to a 384-well culture plate (5×10^3 cells/well). Plates were placed in the incubator at 37° C. for 24 hours.
Afterward, stock solutions of test compounds and omeprazole positive control were prepared. Compound solutions were transferred into the assay plate using Echo550. The plate was then placed back into the incubator for compound treatment.
Later, after 24 hours of treatment, the plate was removed from the incubator and allowed to cool at ambient temperature. 30 μL One-Glo reagent equal to that of the culture medium was added in each well. Cells were allowed to lyse for at least 3 minutes, and then measured in a luminometer.
Dose responses were graphed using the non-linear regression analysis in XLfit and EC50 values were also calculated.

[3] = system: MeWo cells; test: Annexin V assay, additional evaluation (Example 8); type: cell-based; conditions: 100, 10, 1 μM; 6, 24, 48, 72 hours
Description: (§1) To further investigate the impact of test compounds on apoptosis, multiple readouts, covering different stages of apoptosis, were carried out on both MeWo and WM115 cells. Both cell types were treated with test compounds at 3 doses (100 μM, 10 μM, and 1 μM). Staurosporine was used as a positive control. […] The test compounds evaluated were CV-8684. CV-8685, and CV-8688.
(§2) Cell seeding was performed as discussed above with the following exceptions: the final cell density was 4,000 cells/well for 6-hour and 24-hour detections, whereas 2,000 cells/well were used for 48-hour and 72-hour detections. For each time point. 384-well clear bottom plates (Corning 3712) and solid white bottom plates (Corning 3570) were prepared. The plates were incubated as discussed above.
(§3) For preparation of the compound source plate, each test compound was dissolved in DMSO to 10 mM stock. Two additional concentrations were generations by 10-fold dilution to 1 mM and 0.1 mM. Staurosporine was used as positive control and 1% DMSO was employed as vehicle (negative) control. The compound source plate was spun at room temperature at 1,000 RPM for 1 minute and agitated using a plate shaker for 2 minutes.
(§4) 400 nL of test compound was transferred from the compound source plate to 384-well culture plates using Echo550 liquid handler. After 6, 24, 48, and 72 hours, the plates were removed from the incubator for detections.
(§5) Culture media was removed and cells were washed twice with PBS. 20 μL of pre-mixed annexin V-FITC working solution was added to each well. The cells were incubated at room temperature for 20 minutes. Plates were read using Acumen eX3 to count the number of FITC-positive cells. The relative activity was calculated according to the following formula: Relative Activity (%)=100%×(Countsample/Countvehicle).

[4] = system: WM115 cells; test: Annexin V assay, additional evaluation (Example 8); type: cell-based; conditions: 100, 10, 1 μM; 6, 24, 48, 72 hours
Description: as §1, §2, §3, §4, §5

[5] = system: MeWo cells; test: CellTiter-Glo cell viability assay (Example 9); type: cell-based; conditions: 100, 10, 1 μM; 6, 24, 48, 72 hours
Description: (§6) CellTiter-Glo® 2.0 assay was purchased from Promega. Cell seeding, preparation of the compound source plate, and exposure of cells to test compounds were performed as described in Example 8.
(§7) CellTiter-Glo® reagents were thawed and equilibrated to room temperature before the experiment. 40 μL of CellTiter-Glo® reagent was then added to each well for detection (at 1:1 ratio to culture medium). The plates were then incubated at room temperature for 30 minutes and read using EnSpire (PerkinElmer) plate reader. The remaining activity was calculated according to the following formula: Remaining Activity (%)=100%×(Lumsample−Lumbkg)/(Lumvehicle−Lumbkg).

[6] = system: WM115 cells; test: CellTiter-Glo cell viability assay (Example 9); type: cell-based; conditions: 100, 10, 1 μM; 6, 24, 48, 72 hours
Description: as §6, §7

[7] = system: MeWo cells; test: Lactate dehydrogenase (LDH) release assay (Example 10); type: cell-based; conditions: 100, 10, 1 μM; 6, 24, 48, 72 hours
Description: (§8) The LDH assay quantitatively measures lactate dehydrogenase (“LDH”) released into the media from damaged cells as a biomarker for cytotoxicity and cytolysis.
(§9) CytoTox-ONE™ Homogenous Membrane Integrity Assay was purchased from Promega. Cell seeding, preparation of the compound source plate, and exposure of cells to test compounds were performed as described in Example 8.
(§10) Plates were then centrifuged at 1,000 RPM for 1 minute. 20 μL of cell culture medium was transferred into a new 384-well black solid plate. Then, 20 μL of CytoTOX-ONE™ was added into each well and incubated at room temperature for 10 minutes. Afterward, 10 μL of stop solution were added to each well, and the plates were agitated at 500 rpm for 1 minute. Plates were read using an excitation wavelength of 560 nm and an emission wavelength of 590 nm on EnSpire. The relative activity was calculated according to the following formula: Relative Activity (%)=100%×(Lumsample−Lumbkg)/(Lumvehicle−Lumbkg).

[8] = system: WM115 cells; test: as above; type: cell-based; conditions: 100, 10, 1 μM; 6, 24, 48, 72 hours
Description: as §8, §9, §10

[9] = system: MeWo cells; test: Cell morphology after treatment (Example 6); type: cell-based; conditions: 100 μM, 6 hours
[10] = system: WM115 cells; test: Cell morphology after treatment (Example 6); type: cell-based; conditions: 100 μM, 6 hours
[11] = cited from earlier work
[12] = system: Candida albicans; conditions: cited from earlier work
[13] = system: staphylococci; conditions: cited from earlier work
[14] = EC50 (uM), Table 2, 24 hours of treatment
[15] = EC50 (uM), Table 1, 24 hours of treatment

O=Cc1c2[nH]c3ccccc3c2cc2[nH]c3ccccc3c12 [6-formylindolo[3,2-b] carbazole (FICZ), 6-formylindolo[3,2-b] carbazole]
AhR agonism [1]: Agonists

O=C(Cc1c[nH]c2ccccc12)Cc1c[nH]c2ccccc12 [AB12976]
EC50 [2, 14]: 16.5 µM

O=C[C@@H]1Cc2c([nH]c3ccccc23)[C@@H](c2c[nH]c3ccccc23)CN1 [AB17011, Malassezia Indole A]
EC50 [2, 14]: 35.8 µM

O=C(c1c[nH]c2ccccc12)c1nccc2c1[nH]c1ccccc12 [AB17014, Pityriacitrin]
EC50 [2, 14]: 3.46 µM

COC(=O)c1c(C(c2c[nH]c3ccccc23)C2CC2)[nH]c2ccccc12 (stereo not drawn) [AB17151]
EC50 [2, 14]: 13.7 µM

Cc1ccc2c(c1)[nH]c1c(C)c3c(cc12)[nH]c1ccccc13 [AB17225]
EC50 [2, 14]: 3.93 µM

O=Cc1c(Cc2c[nH]c3ccccc23)[nH]c2ccccc12 [CV-8684, Malassezin]
apoptosis induction (annexin V binding) [3]: induced apoptosis at the highest concentration tested after 6 hours of treatment | apoptosis induction (annexin V binding) [4]: induced apoptosis at the highest concentration tested after 6 hours of treatment | inhibition of cell viability [5]: dose-dependent inhibition of cell viability | inhibition of cell viability [6]: dose-dependent inhibition of cell viability | LDH release [7]: did not induce significant release | LDH release [8]: did not induce significant release | cell morphology [9]: significantly affected | cell morphology [10]: significantly affected | EC50 [2, 15]: 4.19 µM

c1ccc2c(c1)[nH]c1cc3c(cc12)[nH]c1ccccc13 [CV-8685, indolo[3,2-b] carbazole]
apoptosis induction (annexin V binding) [3]: 48 hours of treatment appeared to elicit apoptosis | apoptosis induction (annexin V binding) [4]: showed the induction effect with 24 hours of treatment | inhibition of cell viability [6]: inhibitory effect on WM115 cell viability in a dose-dependent manner only after 24-hour treatment | LDH release [8]: dose-dependent induction effect on LDH release | cell morphology [10]: only affect WM115 | EC50 [2, 15]: 6.6 µM | EC50 [2, 14]: 15.2 µM

OCc1c(Cc2c[nH]c3ccccc23)[nH]c2ccccc12 [CV-8803]
EC50 [2, 15]: 13.9 µM

CC(c1[nH]c2ccccc2c1CO)c1c[nH]c2ccccc12 (stereo not drawn) [CV-8804]
EC50 [2, 15]: 15.7 µM

Cc1ccc2cc3c(ccc4ccccc43)c3c2c1CC3 [Compound 3-MC, 3-methylcholanthrene, reference compound]
EC50 [2]: 4.34 µM

O=Cc1c(C(=O)c2c[nH]c3ccccc23)[nH]c2ccccc12 [Compound A5 (CV-8819)]
EC50 [2, 14]: 4.11 µM

CC(c1[nH]c2ccccc2c1C(=O)O)c1c[nH]c2ccccc12 (stereo not drawn) [Compound B10]
EC50 [2, 14]: 4.29 µM

COC(c1[nH]c2ccccc2c1C=O)c1c[nH]c2ccccc12 (stereo not drawn) [Compound H (AB12509)]
EC50 [2, 14]: 11.6 µM

Cc1ccc2c(Cc3[nH]c4ccccc4c3C=O)c[nH]c2c1 [Compound I (CV-8686)]
EC50 [2, 14]: 5.45 µM

CC(c1[nH]c2ccccc2c1C=O)c1c[nH]c2ccccc12 (stereo not drawn) [Compound II (CV-8688]
EC50 [2, 14]: 13.4 µM

Cc1ccc2c(c1)[nH]c1cc3c(cc12)[nH]c1ccccc13 [Compound IV (CV-8687)]
EC50 [2, 14]: 33.6 µM

O=C1Nc2ccccc2/C1=C1/Nc2ccccc2C1=O [Indirubin]
AhR agonism [1]: known agonist

c1ccc2[nH]c(Cc3c[nH]c4ccccc34)cc2c1 [Malassezin Precursor]
EC50 [2, 14]: 37.3 µM

COc1ccc2[nH]c([S+]([O-])Cc3ncc(C)c(OC)c3C)nc2c1 (stereo not drawn) [Omeprazole, omeprazole, reference compound]
EC50 [2, 15]: 21.4 µM | EC50 [2, 14]: 42.3 µM and 39.8 µM

Clc1cc2c(cc1Cl)Oc1cc(Cl)c(Cl)cc1O2 [TCDD, 2,3,7,8-tetrachlorodibenzodioxin, reference compound]
EC50 [2, 14]: 0.0018 µM and 0.0031 µM

Nc1c(C(=O)O)c2nc3c(C(=O)O)cccc3oc-2cc1=O [cinnabarinic acid]
AhR agonism [1]: Agonists

Nc1ccccc1C(=O)CC(N)C(=O)O (stereo not drawn) [kynurenine]
AhR agonism [1]: Agonists

Pityriacitrin
SPF ([11]; 1.25% cream): 1.4 | SPF ([11]; 2.5% cream): 1.5 | SPF ([11]; 5% cream): 1.7 | UV-protective effect [12]: UV-protective effect | toxicity [12]: no toxicity | UV-protective effect [13]: UV-protective effect | toxicity [13]: no toxicity
